In data set [1] the target is T1, SARS-CoV-2 nsp15 endoribonuclease (endoU) (Severe acute respiratory syndrome coronavirus 2, UniProt P0DTD1). In words: biochemical. Format: biochemical. Particulars: for inhibition at 10 µM: read-out: 1° FRET Assay % inhibition.
Data set [2] has as its target T2, SARS-CoV-2 nsp15 (Severe acute respiratory syndrome coronavirus 2, UniProt P0DTD1). The format is binding.
The nature of data set [3]: Amplex Red redox-cycling counter screen (H2O2 generation with DTT). Particulars: 1 mM DTT; compared with redox-cycling reference DA-3003-1. For orientation: The purpose of a counterscreen is to sort out artefacts and off-target activity.
The target in data set [4] is T1, SARS-CoV-2 nsp15 endoribonuclease (endoU). In words: biochemical. Particulars: 0.78 μM nsp15, 500 ng poly(rA) substrate, 2 h; n = 3; read-out: RNA Cleavage Assay IC50.
Data set [5] concerns the target T2, SARS-CoV-2 nsp15. In words: Native MS (CID/SID) ligand binding to nsp15.
From the text: In native MS, nsp15 was electrosprayed from non-denaturing ammonium acetate solution in the presence of an inhibitor. Inhibitor binding can be evaluated by monitoring the increase in mass of the inhibitor-nsp15 complex compared to the apo (protein with no ligand) nsp15 protein. […] Collision-induced dissociation (CID), widely available in commercial mass spectrometers, involves acceleration of protein ions into a pressurized collision cell. Upon CID, the internal energy of the protein increases from multiple collisions with neutral gas molecules.
By increasing the acceleration voltage to 120V, CID and SID of the nsp15 hexamer both released primarily monomeric species (Fig 6B and 6C), with SID resulting in lower charged monomers and additional dimers/trimers. […] The peak cluster centered at 41.2 kDa is the apo protein (sequence mass and salt adducts).
Recombinant nsp15 was buffer exchanged into 100 mM ammonium acetate (pH adjusted to 7.5 using ammonium hydroxide) using size exclusion spin columns (Zeba Micro Spin Desalting Columns, 7k MWCO, 75 μL) following manufacturer’s protocol. The protein solution was then diluted to 5 μM, supplemented with 10 μM Mn(II) acetate, and mixed with ligands at desired concentrations. […]
Data set [6] has as its system SARS-CoV-2. In words: microbe, parasite or virus in culture. The format is cell-based. Particulars: for protection against viral CPE: Vero 76.
Data set [7] deals with SARS-CoV-2. In words: microbe, parasite or virus in culture. Format: cell-based. The conditions noted are these: Severe acute respiratory syndrome coronavirus 2, read-out: EC90 (concentration that reduces viral replication by 90%); Caco-2, microscopic observation.
For data set [8], the system named is SARS-CoV-2 (isolate USA WA1/2020). In words: microbe, parasite or virus in culture. Format: cell-based. Particulars: Severe acute respiratory syndrome coronavirus 2; Calu-3, MOI = 0.5, 48 h, immunostaining; read-out: EC50 (infection).
For data set [9] the following is noted: 100 mg/kg oral dose, Sprague-Dawley rats, no reference given, cited from earlier work.
The conditions of data set [10]: mice, 100 mg/kg per day for 6 months ref 37; cited from earlier work.
Data set [11] in a line: Cytotoxicity in Caco-2 cells. Particulars: human.
Data set [12] can be described thus: Mammalian cytotoxicity assay, HepG2. The conditions noted are these: human, HepG2 hepatocyte cells.
The nature of data set [13]: Mammalian cytotoxicity assay, CRL-8155. Particulars: human, CRL-8155 lymphocyte cells.
A short description of data set [14]: Cell viability in Calu-3 cells (cell number per well). Particulars: human, CC50, Calu-3, 48 h.
A short description of data set [15]: Cytotoxicity in Vero 76 cells (CPE assay toxicity wells). The conditions noted are these: African green monkey.
Data set [16] can be described thus: Solubility observation in DMSO and assay buffer. Particulars: diluted in assay buffer.
In data set [17] the test system is SARS-CoV-2. Set-up: method as in PMID 33564093. The conditions noted are these: at 50 μM concentrations ref 15; cited from earlier work.
The mark [18] stands for this setting: primary screen at 10 μM, 25 nM nsp15, 0.5 μM substrate, 1 h.

“And” between values parts separate entries of the source, which are not always exact repeats. Identical values can stand only once. Like-named read-outs stand apart in the source and are kept apart here.

As to `Cc1cc(N)c2cc(NC(=O)Nc3ccc4nc(C)cc(N)c4c3)ccc2n1` [Aminoquinuride], the inhibition at 10 µM in [1] was found to be 95%.

On to `O=C1C(NC2CCCCCCC2)=CC(=O)c2ncccc21` [Azaquinone], for which, in data set [1] (setting [18]), the inhibition at 10 µM was 80%. In addition, at SARS-CoV-2 nsp15 [2], the “DSF Assay ΔTm” value is -11.4 °C and the “nsp15 Tm lowered by” value is “more than 10 °C”. In addition, the “Amplex Red Assay % Activity (redox cycling)” value (from here on “Amplex Red Assay % Activity”) in data set [3] is given as greater than 100%.

Consider `Cc1nc2c(s1)C(=O)C=C(NCCN(C)C)C2=O` [BN-82685], for which, in data set [1] (setting [18]), the inhibition at 10 µM is 76%. At SARS-CoV-2 nsp15 [2], the “DSF Assay ΔTm” value is -11.3 °C and the “nsp15 Tm lowered by” value was “more than 10 °C”. Besides, in [3], the “Amplex Red Assay % Activity” value was greater than 100%.

With `CC1(C)C(=O)N=C2C1=C(O)C(=O)c1ccccc12` [BVT-948], the “1° FRET Assay % inhibition” value in [1] came to 90%. Further, the results for the concentration for half-maximal inhibition (IC50) in [1] (read-out: 2° FRET Assay IC50) and in data set [1] (read-out: 3° FRET Assay IC50) were 4.96 µM and 0.1 µM, respectively. Further, the “DSF Assay ΔTm” value on SARS-CoV-2 nsp15 [2] is -11.8 °C. In addition, the “nsp15 Tm lowered by” value at SARS-CoV-2 nsp15 [2] is “more than 10 °C”.

Consider `CC(=O)[C@]1(O)Cc2c(O)c3c(c(O)c2[C@@H](O[C@H]2C[C@H](N)[C@H](O)[C@H](C)O2)C1)C(=O)c1c(O)cccc1C3=O` [Carubicin], for which the inhibition at 10 µM in data set [1] worked out at 56%.

`CC(C)(O/N=C(\C(=O)N[C@@H]1C(=O)N2C(C(=O)[O-])=C(C[n+]3ccccc3)CS[C@H]12)c1csc(N)n1)C(=O)O` [Ceftazidime]: the IC50 was greater than 10 µM in [1] (2° FRET Assay IC50) and 72 µM in [1] (3° FRET Assay IC50). In addition, the inhibition at 10 µM in data set [1] (setting [18]) was determined as 66%.

Regarding `COc1cccc2c1C(=O)c1c(O)c3c(c(O)c1C2=O)C[C@@](O)(C(=O)CO)C[C@@H]3O[C@H]1C[C@H](N)[C@H](O)[C@H](C)O1` [Doxorubicin], the figures for the IC50 in data set [1] (2° FRET Assay IC50) and in data set [1] (3° FRET Assay IC50) were 7.46 µM and 9.29 µM, respectively.

Take `O=C(Nc1ccc(O)c(O)c1)c1cccc(O)c1O` [Exebryl-1]: in data set [1] (setting [18]), the inhibition at 10 µM is 57%. Moreover, the “DSF Assay ΔTm” value on SARS-CoV-2 nsp15 [2] is 0.1 °C. In [4], the half-maximal inhibitory concentration (IC50) was 9.27 µM. Besides, the Kd at SARS-CoV-2 nsp15 [5] was roughly 12 µM. Besides, the EC50 is 10 µM in the data set with SARS-CoV-2 [6] (Severe acute respiratory syndrome coronavirus 2, Vero 76, read-out: EC50 (concentration that reduces CPE by 50%)); 16 µM with SARS-CoV-2 [6] (Severe acute respiratory syndrome coronavirus 2, Vero 76, neutral red staining, read-out: EC50 (CPE)); 65.6 µM in data set [8]. The same compound yielded an antiviral activity with SARS-CoV-2 [6] (summary across Vero 76, Caco-2, and Calu-3 cells) of 10 to 66 µM. Moreover, in the data set on SARS-CoV-2 [7], the EC90 amounted to 51 µM. Moreover, in data set [9] (at 1 h), the plasma concentration is 9 µM. In addition, the plasma levels result in data set [9] (by 4 h after dosing) is listed as “below 4 μM”. Moreover, the toxicity entry in data set [10] is reported as “without evident toxicity”. It took 61 µM to reach half-maximal cytotoxicity in data set [11] (CC50). The CC50 at 48 h was greater than 200 µM in data set [12], 37.8 µM in [13] and greater than 200 µM in data set [14]. The CC50 at 5 days worked out at 52 µM in data set [15] (CC50, Vero 76, microscopic observation) and 57 µM in [15] (CC50, Vero 76 cell growth, neutral red staining).

For the compound `CCc1ccccc1NC(=O)Oc1ccc2c(c1)[C@]1(C)CCN(C)O[C@@H]1N2C` [Ganstigmine], in [1], the inhibition at 10 µM turned out to be 51%.

As to `O=C(Nc1cccc(C2=NCCN2)c1)c1ccc(-c2ccc(C(=O)Nc3cccc(C4=NCCN4)c3)cc2)cc1` [MMV1580853], the inhibition at 10 µM in [1] (setting [18]) amounted to 62%. Moreover, on SARS-CoV-2 nsp15 [2], the “DSF Assay ΔTm” value came out at 0.1 °C. Also, the “Amplex Red Assay % Activity” value in [3] is recorded as less than 25%. The “binding detected on CID- or SID-released monomers” value on SARS-CoV-2 nsp15 [5] (~10 μM compound, 5 μM nsp15) is reported as “too weak to be detected”. For the same compound, the “protection against viral CPE” value in the data set with SARS-CoV-2 [6] is “Neither Piroxantrone nor MMV1580853 exhibited protection against viral CPE”. For the same compound, the CC50 at 48 h in data set [12] and in [13] was greater than 80 µM each time. The solubility result in [16] is listed as “poor solubility”.

In the case of `C/C1=C2/[N-][C@H]([C@H](CC(N)=O)[C@@]2(C)CCC(=O)NC[C@@H](C)OP(=O)([O-])O[C@H]2[C@@H](O)[C@@H](n3cnc4cc(C)c(C)cc43)O[C@@H]2CO)[C@]2(C)N=C(/C(C)=C3N=C(/C=C4N=C1[C@@H](CCC(N)=O)C\4(C)C)[C@@H](CCC(N)=O)[C@]\3(C)CC(N)=O)[C@@H](CCC(N)=O)[C@]2(C)CC(N)=O.[CH3-].[Co+3]` [Mecobalamin], the “1° FRET Assay % inhibition” value in [1] (setting [18]) is reported as 58%. The IC50 in data set [1] (secondary dose response, 8-point 3-fold, top concentration 10 μM, read-out: 2° FRET Assay IC50) is 3.34 µM; in [1] (tertiary dose response, expanded concentration range, read-out: 3° FRET Assay IC50), 18.3 µM. Moreover, at SARS-CoV-2 nsp15 [2], the “DSF Assay ΔTm” value is -3.4 °C.

In the case of `C[C@@H]1CNS(=O)(=O)N(c2ccc3c(C#N)nccc3c2)C1` [PF-06260414], in [1], the “1° FRET Assay % inhibition” value is on record as 74%. For the same compound, the IC50 in [1] (read-out: 2° FRET Assay IC50) was 7.69 µM; in [1] (read-out: 3° FRET Assay IC50), greater than 80 µM.

For the compound `NCCCNc1ccc2c3c(nn2CCNCCO)-c2c(O)ccc(O)c2C(=O)c13` [Piroxantrone], in data set [1] (setting [18]), the inhibition at 10 µM was found to be 74%. The “DSF Assay ΔTm” value at SARS-CoV-2 nsp15 [2] is -1.1 °C. In addition, the “protection against viral CPE” value in the data set on SARS-CoV-2 [6] is given as “Neither Piroxantrone nor MMV1580853 exhibited protection against viral CPE”. Also, the CC50 at 48 h in [12] was 33.9 µM; in data set [13] it was less than 1.25 µM.

As to `COC1=C(N)C(=O)c2nc(-c3nc(C(=O)O)c(C)c(-c4ccc(OC)c(OC)c4O)c3N)ccc2C1=O` [Streptonigrin], in data set [1], the “3° FRET Assay IC50” value is on record as “sub-micromolar” and the inhibition at 10 µM was found to be 89%. For the same compound, the IC50 in data set [1] (2° FRET Assay IC50) was 4.25 µM. In addition, in data set [1] (3° FRET Assay IC50), the IC50 turned out to be 0.29 µM. Moreover, at SARS-CoV-2 nsp15 [2], the “DSF Assay ΔTm” value is -11.5 °C and the “nsp15 Tm lowered by” value was “more than 10 °C”. Also, the “Amplex Red Assay % Activity” value in data set [3] is on record as greater than 100%.

With `O=C1NC(=O)/C(=C\c2ccccc2)C2=C1CCCC2` [Tesimide], the inhibition at 10 µM in data set [1] (setting [18]) is 82%. On SARS-CoV-2 nsp15 [2], the “DSF Assay ΔTm” value was -11.7 °C and the “nsp15 Tm lowered by” value was “more than 10 °C”.

For the compound `Cc1cc(-c2ccc(/N=N/c3c(S(=O)(=O)O)cc4cc(S(=O)(=O)O)cc(N)c4c3O)c(C)c2)ccc1/N=N/c1c(S(=O)(=O)O)cc2cc(S(=O)(=O)O)cc(N)c2c1O` [Trypan Blue], in data set [1] (2° FRET Assay IC50), the IC50 was 5.08 µM and 7.78 µM. Further, in data set [1] (setting [18]), the “1° FRET Assay % inhibition” value stood at 51% and the inhibition at 10 µM worked out at 58%.

Turning to `COc1cccc2c1C(=O)c1c(O)c3c(c(O)c1C2=O)C[C@@](O)(C(=O)CO)C[C@@H]3O[C@H]1C[C@H](N)[C@H](O[C@@H]2CCCCO2)[C@H](C)O1` [pirarubicin], the IC50 in data set [1] (2° FRET Assay IC50) amounted to 3.78 µM; in data set [1] (3° FRET Assay IC50), 5.98 µM. Moreover, the inhibition at 10 µM in data set [1] turned out to be 66%. In addition, at SARS-CoV-2 nsp15 [2], the “DSF Assay ΔTm” value was found to be 0.4 °C.

Turning to `N=C1CCCN1Cc1nc(O)nc(O)c1Cl` [tipiracil], in the data set with SARS-CoV-2 [17], the antiviral activity entry is given as “only minimal antiviral activity”.

In the case of `CC(=O)O[C@H]1C[C@@H]2CC[C@@H]3[C@H](CC[C@@]4(C)[C@H]3C[C@H]([N+]3(C)CCCCC3)[C@@H]4OC(C)=O)[C@@]2(C)C[C@@H]1N1CCCCC1` [vecuronium bromide], the inhibition at 10 µM in [1] was determined as 61%.

For the compound `CC1(C)CCC2=C(O1)c1ccccc1C(=O)C2=O` [β-Lapachone], in data set [1], the “3° FRET Assay IC50” value is “sub-micromolar” and the inhibition at 10 µM came to 73%. This compound yielded a 50% inhibitory concentration (IC50) in data set [1] (2° FRET Assay IC50) of 2.78 µM. For the same compound, the IC50 in [1] (3° FRET Assay IC50) came out at 0.31 µM. The “DSF Assay ΔTm” value on SARS-CoV-2 nsp15 [2] is -11.5 °C. Further, the “nsp15 Tm lowered by” value at SARS-CoV-2 nsp15 [2] (negative Tm shift, 100 μM ligand) is “more than 10 °C”. In [3], the “Amplex Red Assay % Activity” value is listed as greater than 100%.

Usually inhibition stands for the share of the control response that was lost under treatment. The term IC50 denotes the concentration needed to halve the response being measured. Broadly, the Kd is the equilibrium constant for the complex coming apart. In general, CC50 refers to the concentration at which the toxic effect on the cells reaches its halfway point.

Values taken from PMC8062000, “High-throughput screening of the ReFRAME, Pandemic Box, and COVID Box drug repurposing libraries against SARS-CoV-2 nsp15 endoribonuclease to identify small-molecule inhibitors of viral activity” (PLoS ONE, 2021).
